The assay has as its system Eimeria maxima and Clostridium perfringens. It counts as in vivo, Cobb 500 Chicks (Gallus gallus domesticus). To be noted: in words.

Bridge positions count the residues as written; N and C are the ends. Square brackets hold non-standard residues; d marks the D form. Peptide text beside a SMILES is read from it. * marks the point of attachment. Ileψ(thiazoline)Cys = CC[C@H](C)[C@H](N)C1=N[C@H](C(=O)*)CS1; dOrn = NCCC[C@@H](N)C(=O)O

Turning to `CC[C@H](C)[C@H](N)C1=N[C@H](C(=O)N[C@@H](CC(C)C)C(=O)N[C@H](CCC(=O)O)C(=O)N[C@H](C(=O)N[C@H]2CCCCNC(=O)[C@H](CC(N)=O)NC(=O)[C@@H](CC(=O)O)NC(=O)[C@H](Cc3cnc[nH]3)NC(=O)[C@@H](Cc3ccccc3)NC(=O)[C@H]([C@@H](C)CC)NC(=O)[C@@H](CCCN)NC2=O)[C@@H](C)CC)CS1` [Treatment Group 5, Bacitracin] ({Ileψ(thiazoline)Cys}-L[dE]IK[dOrn]I[dF]H[dD]N; lactam 4-C), the “weight gain over the infected negative control” value is “significant increase in weight gain”.

(Values after patent publication US20190300824A1, “BACTERIAL SPORE COMPOSITIONS FOR […]” (priority 2014, published 2019).)
